# Assay results as given in patent US7267977B2, “Peripheral-type benzodiazepine receptor: a tool for detection, diagnosis, prognosis, and treatment of cancer” (Georgetown University, priority 1998, dated 2007).
# Assays:
# PBR [1] = target: T1, PBR (Homo sapiens, UniProt P30536); test: Fluorescent microscopy with compound 4 fluorescent PBR ligand, cultured cells; assay type: cell-based; parameters: endogenous in cells; host or cells: MDA-231, MCF-7 and MCF-7ADR (ADR) human breast cancer cells, whole cells or isolated nuclei; conditions: MDA-231 cells, 100 uM competitor, 1 uM compound 4, 45 min at 37° C.
# Procedure: Fluorescent Microscopy with the compound 4 fluorescent PBR Ligand—MA-10, MDA-231, MCF-7, and ADR cells were grown on glass coverslips as previously described [Kozikowski et al. (1997) J. Med. Chem. 40: 2435-2439]. Cells were then washed twice with sterile PBS and incubated for 45 min with 1 uM compound 4, a fluorescent derivative of the PBR ligand FGIN-27, with or without a competing PBR ligand, FGIN-27, at a concentration of 100 uM. After the incubation period, the cells were washed with PBS and examined by fluorescent microscopy using an Olympus BH-2 fluorescence microscope.
# Target sequence in this assay (P30536 2-169): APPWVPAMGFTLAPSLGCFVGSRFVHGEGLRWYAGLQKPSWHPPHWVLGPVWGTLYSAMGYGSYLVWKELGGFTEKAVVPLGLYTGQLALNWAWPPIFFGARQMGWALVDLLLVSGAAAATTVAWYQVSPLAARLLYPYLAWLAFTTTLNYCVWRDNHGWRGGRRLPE
# [2] = target: T2, peripheral-type benzodiazepine receptor (PBR) (Homo sapiens, UniProt P30536); test: [3H]PK11195 binding to isolated nuclei (Scatchard analysis); conditions: pmol/mg nuclear protein
# T2 construct: Cells were scraped from 150 mm culture dishes into 5 ml phosphate buffered saline (PBS); endogenous in cells; host or cells: MDA-231, MCF-7 and MCF-7ADR (ADR) human breast cancer cells, whole cells or isolated nuclei
# Procedure: (§1) Radioligand Binding Assays—Cells were scraped from 150 mm culture dishes into 5 ml phosphate buffered saline (PBS), dispersed by trituration, and centrifuged at 500×g for 15 min. Cell pellets were resuspended in PBS and assayed for protein concentration. […] Scatchard plots were analyzed by the LIGAND program [Munson, (1980) Anal. Biochem. 107:220]. […] IC50 estimation was performed using the LIGAND program (Munson, 1980, supra).
# (§2) Nuclear Uptake of ^3H-Cholesterol—Nuclei were isolated from MDA-231, MCF-7, and as described by Elango et al (1997). […] Samples were then centrifuged at 500×g for 30 min and pellets were washed in […] ice-cold PBS. After a second centrifugation at 500×g for 30 min, 200 ul 1.0 N NaOH was then added to the pellets and incubated overnight at 37° C. After incubation, 200 ul 1.0 N HCl was added and samples were vigorously vortexed. 3 ml scintillation cocktail (Eco-Lite) was then added prior to reading radioactivity on a Wallac 1409 Liquid Scintillation Counter.
# MDA-231 cells = test: BrdU cell proliferation ELISA; assay type: cell-based, human; conditions: for stimulation of MDA-231 cell proliferation: 48 h
# Procedure: BrdU Cell Proliferation Assays and BrdU-labeling of MDA-231 Cells—MDA-231 cells were plated on 96-well plates (Corning) at a concentration of approximately 10,000 cells/well (24 h incubation) or approximately 5,000 cells/well (48 h incubation) in DMEM supplemented with 0.1% FBS.
# MDA-231 nuclei = test: Nuclear uptake of 3H-cholesterol, MDA-231 nuclei; assay type: biochemical, human; conditions: -8 to -6M PK11195, MDA-231 nuclei, 60 min at 37° C.
# Procedure: as §2
# MCF-7 nuclei = test: Nuclear uptake of 3H-cholesterol, MCF-7 nuclei; assay type: biochemical, human; conditions: increasing concentrations of PK11195
# Procedure: as §2
# [3] = target: T2, peripheral-type benzodiazepine receptor (PBR); test: [3H]PK11195 radioligand binding to whole cells (Scatchard analysis, competition); conditions: 50 μg protein, [3H]PK11195, Scatchard plot
# Procedure: as §1
# PBR [4] = target: T1, PBR; test: Compound 4 fluorescence labeling of human breast tissue biopsies; parameters: Paraffin embedded sections of normal breast tissue; from tissue; host or cells: human breast biopsies (normal tissue and aggressive carcinoma), Lombardi Cancer Center; conditions: 1000 fold excess of competitive ligand
# Target sequence in this assay (P30536 whole entry): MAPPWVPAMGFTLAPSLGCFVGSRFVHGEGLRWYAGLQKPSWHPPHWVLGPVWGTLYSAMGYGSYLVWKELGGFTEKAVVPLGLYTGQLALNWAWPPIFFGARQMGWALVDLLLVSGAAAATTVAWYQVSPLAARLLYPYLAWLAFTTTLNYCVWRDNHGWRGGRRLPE
# Procedure: PBR ligand binding activity was determined using the fluorescent PBR derivative compound 4 [Munson, 1980, supra]
# In some samples, the hematoxylin counterstaining was omitted in order to confirm the PBR positive staining of the nuclei of breast carcinoma cells (b). […] In this experiment an FITC-coupled secondary antibody was used to localize the immunoreactive PBR protein. […] PBR ligand binding activity was also determined in the aggressive breast carcinomas using the fluorescent PBR derivative compound 4 (FIG. 10e).
# T2 sequence (P30536 2-169): as the sequence (P30536 2-169) above
Structure (SMILES),displacement of compound 4 fluorescent binding (PBR [1]),Bmax ([2]; nuclei isolated from MCF-7 cells) [pmol/mg protein],Bmax ([2]; nuclei isolated from MDA-231 cells) [pmol/mg protein],"effect on MDA-231 cell proliferation (MDA-231 cells; 24 h, −10 and −9M)",stimulation of MDA-231 cell proliferation (MDA-231 cells; any of the micromolar concentrations),stimulation of MDA-231 cell proliferation (MDA-231 cells; −8M) [%],"Emax (MDA-231 cells; Homo sapiens, MDA-MB-231, 24 h, −5M, read-out: maximal stimulation of MDA-231 cell proliferation) [%]",toxicity to MDA-231 cells (MDA-231 cells; −4M),decrease in the amount of cholesterol uptake (MDA-231 nuclei) [%],response of cholesterol uptake to PK11195 dose-response (MCF-7 nuclei),Bmax ([3]; ADR (MCF-7ADR) cells) [pmol/mg protein],Bmax ([3]; MDA-231 cells) [pmol/mg protein],displacement of compound 4 fluorescence (PBR [4]; aggressive breast carcinoma biopsies),displacement of compound 4 fluorescence (PBR [4]; normal human breast tissue)
CCCCCCN(CCCCCC)C(=O)Cc1c(-c2ccc(F)cc2)[nH]c2ccccc12 [FGIN-27],displacement of fluorescent binding,–,–,–,–,–,–,–,–,–,–,–,–,–
CCC(C)N(C)C(=O)c1cc2ccccc2c(-c2ccccc2Cl)n1 (centres unmarked) [PK11195],–,0.4±0.2,6.9±4.8,no effect,no stimulation,40,40,toxic concentration,~20,failed to respond,1.3±0.23,8.7±1.4,completely displaced the fluorescence,completely displaced the fluorescence
